target: HSET full length protein (Homo sapiens (Human), UniProt Q9BW19); assay: HSET ADP-Glo Assay S - 3 μM ATP; format: biochemical; settings: 5 nM HSET, 70 μg/mL microtubule, 80 min at rt, read-out: COMBINED HSET ADP GLO IC50
Outline: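 ADP-Glo luminescence read-out: ATPase reaction at 3 μM ATP, 80 min at room temperature, after a 10 min compound preincubation. Enzyme was full-length human HSET at 5 nM, stimulated by 70 μg/mL paclitaxel-stabilised bovine microtubules in HEPES pH 6.8 buffer with MgCl2, EGTA, Triton X-100 and DTT.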

Sequence of HSET full length protein (Q9BW19 whole entry): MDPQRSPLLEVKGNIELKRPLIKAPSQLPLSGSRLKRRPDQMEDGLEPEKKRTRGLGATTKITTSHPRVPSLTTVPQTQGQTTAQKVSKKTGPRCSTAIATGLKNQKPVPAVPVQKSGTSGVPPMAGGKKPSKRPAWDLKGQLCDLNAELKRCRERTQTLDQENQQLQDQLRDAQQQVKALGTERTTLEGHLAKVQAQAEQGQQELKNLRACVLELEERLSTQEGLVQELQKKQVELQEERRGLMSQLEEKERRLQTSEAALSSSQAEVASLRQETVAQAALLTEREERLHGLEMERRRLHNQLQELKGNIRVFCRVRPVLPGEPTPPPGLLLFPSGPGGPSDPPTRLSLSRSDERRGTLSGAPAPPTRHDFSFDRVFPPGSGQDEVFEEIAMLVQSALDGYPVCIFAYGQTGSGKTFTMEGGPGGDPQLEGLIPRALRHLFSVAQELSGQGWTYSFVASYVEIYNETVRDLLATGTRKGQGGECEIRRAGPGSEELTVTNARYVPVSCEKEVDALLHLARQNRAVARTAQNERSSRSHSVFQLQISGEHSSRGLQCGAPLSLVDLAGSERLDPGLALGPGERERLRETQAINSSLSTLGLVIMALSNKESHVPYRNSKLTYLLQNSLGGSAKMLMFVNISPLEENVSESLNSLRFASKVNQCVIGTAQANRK

Row | IC50 | SMILES
1 | 27 nM | CCCOC(=O)c1sc(C(=O)N2CC[C@@H](Nc3nccc4ccc(-c5noc(C)n5)cc34)[C@@H]2C)nc1C [Example 255, Propyl 4-methyl-2-((2S,3R)-2-methyl-3-((7-(5-methyl-1,2,4-oxadiazol-3-yl)isoquinolin-1-yl)amino)pyrrolidine-1-carbonyl)thiazole-5-carboxylate]
2 | 20 nM | CCCOC(=O)c1sc(C(=O)N2C[C@@H](F)[C@H](Nc3nccc4ccc(-c5noc(C)n5)cc34)C2)nc1C [Example 256, propyl 2-((3R,4R)-3-fluoro-4-((7-(5-methyl-1,2,4-oxadiazol-3-yl)isoquinolin-1-yl)amino)pyrrolidine-1-carbonyl)-4-methylthiazole-5-carboxylate]
3 | 47 nM | CCCOC(=O)n1cc(NC(=O)CCNc2nccc3ccc(-c4noc(C)n4)cc23)nc1C [Example 257, Propyl 2-methyl-4-(3-{[7-(5-methyl-1,2,4-oxadiazol-3-yl)isoquinolin-1-yl]amino}propanamido)-1 H-imidazole-1-carboxylate]
4 | 207 nM | Cc1nc(-c2ccc3ccnc(NCCC(=O)Nc4cn(C(=O)OC(C)C)c(C)n4)c3c2)no1 [Example 258, Propan-2-yl 2-methyl-4-(3-{[7-(5-methyl-1,2,4-oxadiazol-3-yl)isoquinolin-1-yl]amino}propanamido)-1 H-imidazole-1-carboxylate]
5 | 531 nM | CCOC(=O)n1cc(NC(=O)CCNc2nccc3ccc(-c4noc(C)n4)cc23)nc1C [Example 259, Ethyl 2-methyl-4-(3-{[7-(5-methyl-1,2,4-oxadiazol-3-yl)isoquinolin-1-yl]amino}propanamido)-1 H-imidazole-1-carboxylate]
6 | 140 nM | CCCOC(=O)n1cnc(NC(=O)CCNc2nccc3ccc(-c4noc(C)n4)cc23)c1 [Example 260, Propyl 4-(3-{[7-(5-methyl-1,2,4-oxadiazol-3-yl)isoquinolin-1-yl]amino}propanamido)-1 H-imidazole-1-carboxylate]
7 | 13000 nM | CCOC(=O)n1cc(NC(=O)CCNc2nccc3ccc(-c4cnn(C)c4)cc23)nc1C [Example 261, Ethyl 2-methyl-4-(3-{[7-(1-methyl-1 H-pyrazol-4-yl)isoquinolin-1-yl]amino}propanamido)-1 H-imidazole-1-carboxylate]
8 | 1000 nM | CCCOC(=O)n1cc(NC(=O)CCNc2nccc3ccc(-c4cnn(C)c4)cc23)nc1C [Example 262, Propyl 2-methyl-4-(3-{[7-(1-methyl-1 H-pyrazol-4-yl)isoquinolin-1-yl]amino}propanamido)-1 H-imidazole-1-carboxylate]
9 | 200 nM | CCCOC(=O)n1cc(NC(=O)CCNC(=O)c2cccc(-c3noc(C)n3)c2)nc1C [Example 263]
10 | 280 nM | Cc1nc(-c2cccc(C(=O)NCCC(=O)Nc3cn(C(=O)OC(C)C)c(C)n3)c2)no1 [Example 264]
11 | 2250 nM | CCOC(=O)n1cc(NC(=O)CCNC(=O)c2cccc(-c3noc(C)n3)c2)nc1C [Example 265]
12 | 3400 nM | CCCOC(=O)n1cnc(NC(=O)CCNC(=O)c2cccc(-c3noc(C)n3)c2)c1 [Example 266, Propyl 4-(3-{[3-(5-methyl-1,2,4-oxadiazol-3-yl)phenyl]formamido}-propanamido)-1 H-imidazole-1-carboxylate]
13 | 380 nM | CCCOC(=O)n1cc(NC(=O)[C@@H](O)CNC(=O)c2cccc(-c3cnn(C)c3)c2)nc1C [Example 267]
14 | 910 nM | Cc1nc(NC(=O)[C@@H](O)CNC(=O)c2cccc(-c3cnn(C)c3)c2)cn1C(=O)OC(C)C [Example 269]
15 | 4000 nM | CCOC(=O)n1cc(NC(=O)[C@@H](O)CNC(=O)c2cccc(-c3cnn(C)c3)c2)nc1C [Example 271]
16 | 160 nM | Cc1nc(-c2ccc3ccnc(NCCC(=O)Nc4cnn(C(=O)OC(C)(C)C)c4)c3c2)no1 [Example 272, tert-Butyl 4-(3-{[7-(5-methyl-1,2,4-oxadiazol-3-yl)isoquinolin-1-yl]amino}propanamido)-1 H-pyrazole-1-carboxylate]
17 | 80 nM | CCCOC(=O)n1cc(NC(=O)CCNc2nccc3ccc(-c4noc(C)n4)cc23)cn1 [Example 273, Propyl 4-(3-{[7-(5-methyl-1,2,4-oxadiazol-3-yl)isoquinolin-1-yl]amino}propanamido)-1 H-pyrazole-1-carboxylate]
18 | 11500 nM | CCCOC(=O)n1cc(NC(=O)CCNC(=O)c2cccc(-c3noc(C)n3)c2)cn1 [Example 275, Propyl 4-(3-{[3-(5-methyl-1,2,4-oxadiazol-3-yl)phenyl]formamido}-propanamido)-1 H-pyrazole-1-carboxylate]
19 | 37 nM | CCCOC(=O)c1sc(NC(=O)CCNC(=O)c2cccc(-c3noc(C)n3)n2)nc1C [Example 276, Propyl 4-methyl-2-(3-{[6-(5-methyl-1,2,4-oxadiazol-3-yl)pyridin-2-yl]formamido}propanamido)-1,3-thiazole-5-carboxylate]
20 | 155 nM | Cc1nc(-c2cccc(C(=O)NCCC(=O)Nc3nc(C)c(C(=O)OC(C)(C)C)s3)n2)no1 [Example 277, tert-Butyl 4-methyl-2-(3-{[6-(5-methyl-1,2,4-oxadiazol-3-yl)pyridin-2-yl]formamido}propanamido)-1,3-thiazole-5-carboxylate]
21 | 71 nM | Cc1nc(-c2cccc(C(=O)NCCC(=O)Nc3nc(C)c(C(=O)OC(C)C)s3)n2)no1 [Example 278]
22 | 860 nM | Cc1nc(-c2cccc(C(=O)NCCC(=O)Nc3nc(C)c(C(=O)OC(C)(C)C)s3)c2F)no1 [Example 279]
23 | 141 nM | CCCOC(=O)c1sc(NC(=O)CCNc2nccc3ccc(C)cc23)nc1C [Example 280, Propyl 4-methyl-2-[3-[(7-methyl-1-isoquinolyl)amino]propanoyl-amino]thiazole-5-carboxylate]

Row | SMILES | IC50
24 | CCCOC(=O)n1cc(NC(=O)[C@H](O)CNC(=O)c2cccc(-c3cnn(C)c3)c2)nc1C [Example 268] | 950 nM
25 | Cc1nc(NC(=O)[C@H](O)CNC(=O)c2cccc(-c3cnn(C)c3)c2)cn1C(=O)OC(C)C [Example 270] | 5100 nM

target: HSET (Homo sapiens (Human), UniProt Q9BW19); assay: not given; settings: literature (Watts et al., 2013; Zhang et al., 2016); read-out: HSET IC50 in biochemical assays; cited from earlier work
Sequence (Q9BW19 whole entry): as above

Row | SMILES | IC50
26 | O=C(O)c1cc(I)ccc1NC(=O)[C@H](Cc1ccccc1)NCc1ccccc1 [CW069] | 75000 nM
27 | COc1ccc(-c2nc(N)s[n+]2-c2ccccc2)cc1 [SR31527] | 6600 nM
